From patent publication US6566363B2, “Pyrazole-thiazole compounds, pharmaceutical compositions containing them” (Agouron Pharmaceuticals, Inc., priority 2000, dated 2003)
Counter-ions that a name gives are not always drawn.

How the values were obtained:
CDK2/cyclin A = biological target: T1, CDK2/cyclin A (Homo sapiens, UniProt P24941); assay: Inhibition of CDK2/Cyclin A retinoblastoma kinase activity; type: biochemical; conditions: for Ki: apparent Ki, Rb fragment substrate, 25 μM ATP
T1 construct: made in house; host or cells: CDK2: insect cells (baculovirus); cyclin A: E. coli, then limited proteolysis
Protocol: (§1) Cyclin-dependent kinase activity was measured by quantifying the enzyme-catalyzed, time-dependent incorporation of radioactive phosphate from [^32P]ATP or [^33P]ATP into a protein substrate. […] Reactions were initiated with enzyme, incubated at 30° C., and terminated after 20 minutes by the addition of ethylenediaminetetraacetic acid (EDTA) to 250 mM. […] Radioactivity was quantified by exposing the dried membranes to a phosphorimager.
(§2) Apparent Ki values were measured by assaying enzyme activity in the presence of different inhibitor compound concentrations and subtracting the background radioactivity measured in the absence of enzyme.
A complex of CDK2 and proteolyzed cyclin A was prepared and purified by gel filtration. […] Ki values were measured as described above.

CDK4/cyclin D3 = biological target: T2, CDK4/cyclin D3 (Homo sapiens, UniProt P11802); assay: Inhibition of CDK4/Cyclin D retinoblastoma kinase activity; type: biochemical; conditions: for Ki: apparent Ki, Rb fragment substrate, 25 μM ATP
T2 construct: made in house; host or cells: insect cells co-infected with baculovirus expression vectors
T2 sequence (P11802 whole entry, the tested form may be a part): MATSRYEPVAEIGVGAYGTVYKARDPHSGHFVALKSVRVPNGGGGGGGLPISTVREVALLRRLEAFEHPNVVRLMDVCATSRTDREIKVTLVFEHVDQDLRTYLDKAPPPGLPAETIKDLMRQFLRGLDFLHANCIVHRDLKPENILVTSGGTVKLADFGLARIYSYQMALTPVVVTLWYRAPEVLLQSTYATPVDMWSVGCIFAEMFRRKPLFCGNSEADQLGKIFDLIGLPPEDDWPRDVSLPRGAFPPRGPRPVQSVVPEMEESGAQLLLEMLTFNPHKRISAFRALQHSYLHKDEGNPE
T2 sequence (P30281 whole entry partner, the tested form may be a part): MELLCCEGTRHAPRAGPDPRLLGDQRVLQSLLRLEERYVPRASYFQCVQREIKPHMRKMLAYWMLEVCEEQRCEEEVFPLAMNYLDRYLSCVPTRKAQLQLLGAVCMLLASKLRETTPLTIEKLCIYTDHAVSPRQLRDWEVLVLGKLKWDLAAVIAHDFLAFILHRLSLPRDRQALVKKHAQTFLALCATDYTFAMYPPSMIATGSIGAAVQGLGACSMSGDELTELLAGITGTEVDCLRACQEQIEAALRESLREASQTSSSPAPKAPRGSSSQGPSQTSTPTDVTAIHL
Protocol: as §1, §2
Phosphorylated Rb substrate was captured by microfiltration on a nitrocellulose membrane and quantified using a phosphorimager as described above. For measurement of tight-binding inhibitors, the enzyme complex concentration was lowered to 5 nM, and the assay duration was extended to 60 minutes, during which the time-dependence of product formation was linear.

HCT 116 cell line = assay: Inhibition of cell growth, MTT tetrazolium salt assay; type: cell-based
Protocol: Inhibition of cell growth was measured using the tetrazolium salt assay, which is based on the ability of viable cells to reduce 3-(4,5-dimethylthiazol-2-yl)-2,5-[2H]-diphenyltetrazolium bromide (MTT) to formazan (Mossman, Journal of Immunological Methods, vol. 65 (1983), pp. 55-58). The water-insoluble purple formazan product was then detected spectrophotometrically. The HCT 116 cell line was grown in 96-well plates. Cells were plated in the appropriate medium at a volume of 135 μl/well in McCoy's 5A Medium. Plates were incubated for four hours before addition of inhibitor compounds. Different concentrations of inhibitor compounds were added in 0.5% (v/v) dimethylsulfoxide (15 μL/well), and cells were incubated at 37° C. (5% CO2) for four to six days (depending on cell type). At the end of the incubation, MTT was added to a final concentration of 0.2 mg/mL, and cells were incubated for 4 hours more at 37° C. After centrifugation of the plates and removal of medium, the absorbence of the formazan (solubilized in dimethylsulfoxide) was measured at 540 nm. The concentration of inhibitor compound causing 50% inhibition of growth was determined from the linear portion of a semi-log plot of inhibitor concentration versus percentage inhibition. All results were compared to control cells treated only with 0.5% (v/v) dimethylsulfoxide.

| Ki (CDK2/cyclin A) [nM] | Ki (CDK4/cyclin D3) [nM] | IC50 (HCT 116 cell line; Homo sapiens, 144 h, HCT 116 cells, MTT, four to six days, read-out: IC50 HCT116) [nM] | inhibition of HCT116 growth (entry in IC50 column) (HCT 116 cell line; @ 25 μm) [% @ 25 μm] | inhibition of CDK2/A (entry in Ki column) (CDK2/cyclin A; @ 1 μm) [% @ 1 μm] | inhibition of CDK4/D3 (entry in Ki column) (CDK4/cyclin D3; @ 1 μm) [% @ 1 μm] | Compound |
| --- | --- | --- | --- | --- | --- | --- |
| 1000 | 1600 |  |  |  |  | COc1ccc(Nc2nc3[nH]nc(-c4ccccc4)c3s2)cc1 [Compound 1, 5-(4-Methoxyphenylamino)-3-phenyl-1H-pyrazolo[4,5-d]thiazole Hydrobromic Acid Salt] |
| 34 | 390 | > 25000 |  |  |  | NS(=O)(=O)c1ccc(Nc2nc3[nH]nc(-c4ccccc4)c3s2)cc1 [Compound 2, 3-Phenyl-5-(4-sulfonamidophenylamino)-1H-pyrazolo[4,5-d]thiazole Hydrobromic Acid Salt] |
|  |  |  | 16 | 41 | 18 | NS(=O)(=O)c1ccc(Nc2nc3[nH]nc(-c4c(F)cccc4F)c3s2)cc1 [Compound 3, 3-(2,6-Difluorophenyl)-5-(4-sulfonamidophenylamino)-1H-pyrazolo [4,5-d]thiazole] |
| 1600 | 170 |  |  |  |  | CN1CCN(c2ccc(Nc3nc4[nH]nc(-c5ccccc5)c4s3)cc2)CC1 [Compound 4, 5-[4-(4-Methyl-piperazin-1-yl)-phenylamino]-3-phenyl-1H-pyrazolo[4,5-d]thiazole Hydrobromic Acid Salt] |
